Data on 12 compounds can be found in US4623662A, “Antiatherosclerotic ureas and thioureas” (American Cyanamid Company, priority 1985, dated 1986).

Like-named read-outs stand apart in the source and are kept apart here.

Experiment [1] concerns the target T1, fatty acyl CoA:cholesterol acyl transferase (ACAT) (Rattus norvegicus, UniProt Q7TQM4).
T1 construct: the enzyme was derived from microsomes isolated from rat intestinal mucosal cells; from tissue; host or cells: rat intestinal mucosal cells, microsomes
T1 sequence (Q7TQM4 1-524): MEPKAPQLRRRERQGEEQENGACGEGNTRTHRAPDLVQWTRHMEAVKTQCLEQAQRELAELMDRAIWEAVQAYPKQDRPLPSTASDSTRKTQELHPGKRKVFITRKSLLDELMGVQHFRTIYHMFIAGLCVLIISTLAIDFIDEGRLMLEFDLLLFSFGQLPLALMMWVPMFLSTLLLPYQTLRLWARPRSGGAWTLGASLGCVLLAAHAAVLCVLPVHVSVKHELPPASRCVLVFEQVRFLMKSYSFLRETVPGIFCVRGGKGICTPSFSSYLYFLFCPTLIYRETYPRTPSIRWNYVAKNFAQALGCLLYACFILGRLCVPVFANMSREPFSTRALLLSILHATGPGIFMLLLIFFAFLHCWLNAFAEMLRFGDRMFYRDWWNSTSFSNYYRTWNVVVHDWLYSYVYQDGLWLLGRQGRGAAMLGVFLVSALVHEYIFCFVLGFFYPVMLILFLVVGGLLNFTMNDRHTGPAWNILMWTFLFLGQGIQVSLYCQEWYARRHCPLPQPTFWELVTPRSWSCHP
As to the kind of experiment: Inhibition of ACAT from microsomes isolated from rat intestinal mucosal cells. Format: biochemical. How it is done:
The compounds were tested for their ability to inhibit ACAT according to the following procedure: rat adrenals were homogenized in 0.2M monobasic potassium phosphate buffer, pH 7.4, and centrifuged at 1,000 times gravity for 15 minutes at 5° C. The supernatant, containing the microsomal fraction, served as the source of the cholesterol-esterifying enzyme, fatty acyl CoA:cholesterol acyl transferase (ACAT). A mixture comprising 50 parts of adrenal supernatant, 10 parts of bovine serum albumin (50 mg/ml), 3 parts of test compound (final concentration 5.2 μg/ml), and 500 parts of buffer was preincubated at 37° C. for 10 minutes. After treatment with 20 parts of oleoyl CoA (^14 C-0.4 μCi), the mixture was incubated at 37° C. for 10 minutes. A control mixture, omitting the test compound, was prepared and treated in the same manner. The lipids from the incubation mixture was extracted into an organic solvent and separated by thin-layer chromatography. The cholesteryl ester fraction was counted in a scintillation counter. This procedure is a modification of that described by Hashimoto, et al., Life Scie., 12 (Part II), 1-12 (1973).
The compounds of this invention were tested in vitro at several concentrations for their ability to inhibit the enzyme fatty acyl CoA:cholesterol acyl transferase (ACAT) using the hereinabove described procedure except that the enzyme was derived from microsomes isolated from rat intestinal mucosal cells rather than rat adrenal cells. The results of this test on representative compounds of this invention are given in Table III in terms of IC50 (μM), that concentration which produced 50% inhibition of the ACAT enzyme.

The subject of a further experiment is cholesterol absorption. Description: Inhibition of cholesterol absorption in rats fed 1% cholesterol:0.5% cholic acid diet. Format: in vivo, male Sprague-Dawley rats. Conditions: po, 336 h, rat, 2 weeks; for response vs control in vivo at 0.003 %: dose .003% of the diet; for response vs control in vivo at 0.01 %: dose .01% of the diet. The method in brief:
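Male Sprague-Dawley rats (150-170 g) fed 1% cholesterol:0.5% cholic acid diet for 2 weeks with compound at 0.001, 0.003, 0.01 or 0.03% of diet. Serum cholesterol measured enzymatically; liver cholesterol from saponified large-lobe sample after petroleum ether extraction. Liver and serum sterol expressed as percent of untreated controls.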

In experiment [2] the target is T2, fatty acyl CoA: cholesterol acyl transferase (ACAT) (Rattus norvegicus, UniProt O70536).
T2 construct: The supernatant, containing the microsomal fraction, served as the source of the cholesterol-esterifying enzyme; from tissue; host or cells: rat adrenals, supernatant of 1,000 x g centrifugation containing the microsomal fraction
T2 sequence (O70536 1-545): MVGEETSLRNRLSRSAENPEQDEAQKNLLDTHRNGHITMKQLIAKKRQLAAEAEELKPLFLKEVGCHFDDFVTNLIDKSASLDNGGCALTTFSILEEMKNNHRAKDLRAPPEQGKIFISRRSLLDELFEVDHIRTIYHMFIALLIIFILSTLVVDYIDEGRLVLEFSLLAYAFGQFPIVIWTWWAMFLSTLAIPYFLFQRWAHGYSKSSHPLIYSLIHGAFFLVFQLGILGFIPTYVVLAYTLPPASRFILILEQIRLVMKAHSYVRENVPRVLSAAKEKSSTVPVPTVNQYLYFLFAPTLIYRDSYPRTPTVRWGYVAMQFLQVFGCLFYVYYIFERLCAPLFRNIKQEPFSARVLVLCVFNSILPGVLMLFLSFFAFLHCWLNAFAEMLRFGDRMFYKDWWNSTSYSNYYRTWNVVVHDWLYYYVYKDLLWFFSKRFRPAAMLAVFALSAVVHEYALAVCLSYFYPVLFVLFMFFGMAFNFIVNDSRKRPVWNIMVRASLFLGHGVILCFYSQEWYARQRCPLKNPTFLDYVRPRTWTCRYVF
Description: Inhibition of fatty acyl CoA:cholesterol acyl transferase (ACAT), rat adrenal enzyme. The class given is biochemical. Conditions: rat adrenal ACAT; several concentrations. The method in brief:
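Enzyme source was the microsomal supernatant of rat adrenal homogenate (0.2M potassium phosphate, pH 7.4) with BSA, preincubated with compound (5.2 μg/ml final for single-point) for 10 min at 37° C. Then [14C]oleoyl CoA added, 10 min at 37° C. TLC-separated cholesteryl ester was counted; percent inhibition versus control, IC50 from several concentrations.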

Setting [3] is: read-out: LS (liver sterol), percentage of control values.

As to `CCCCCCCN(Cc1ccc(COCCC(C)C)cc1)C(=O)Nc1c(C)cc(Cl)cc1C` [1-(n-Heptyl)-1-[4-(isopentyloxymethyl)benzyl]-3-(4-chloro-2,6-dimethylphenyl)urea], the IC50 (usually the point on the concentration scale where inhibition reaches its midpoint) in experiment [1] came out at 130 nM. Also, in the experiment on cholesterol absorption (setting [3]), the response vs control in vivo at 0.003 % stood at 47%.

With `CCCCCCCN(Cc1ccc(COCCC(C)C)cc1)C(=O)Nc1c(F)cc(F)cc1F` [1-(n-Heptyl)-1-[4-(isopentyloxymethyl)benzyl]-3-(2,4,6-trifluorophenyl)urea], the midpoint of inhibition in experiment [1], the IC50, lay at 180 nM. Also, in the experiment with cholesterol absorption (dose .001% of the diet, read-out: LS (liver sterol), percentage of control values), the response vs control in vivo at 0.001 % is 75%.

`CCCCCCCN(Cc1ccc(CC(=O)OC)cc1)C(=O)Nc1ccc(F)cc1F` [1-(n-Heptyl)-1-[4-(carbomethoxymethyl)benzyl]-3-(2,4-difluorophenyl)urea] gave an IC50 in experiment [1] of 1750 nM.

In turn, `CCCCCCCN(Cc1ccc(CC(C)C(C)CC)cc1)C(=O)Nc1c(C)cc(Cl)cc1C` (centres unmarked) [1-(n-Heptyl)-1-[4-(2,3-dimethylpentyl)benzyl]-3-(4-chloro-2,6-dimethylphenyl)urea] gave an IC50 in experiment [1] of 20 nM. Moreover, the response vs control in vivo at 0.01 % in the experiment with cholesterol absorption (setting [3]) came to 40%; in the experiment with cholesterol absorption (read-out: SS (serum sterol), percentage of control values), 43%.

In experiment [1], `CCCCCCCN(Cc1ccc(CO)cc1)C(=O)Nc1ccc(F)cc1F` [1-(n-Heptyl)-1-[4-(hydroxymethyl)benzyl]-3-(2,4-difluorophenyl)urea] displayed an IC50 of 200 nM. Also, the response vs control in vivo at 0.003 % in the experiment with cholesterol absorption (setting [3]) was determined as 81%.

For the compound `CCCCCCCN(Cc1ccc(COC(C)=O)cc1)C(=O)Nc1ccc(F)cc1F` [1-(n-Heptyl)-1-[4-(acetoxymethyl)benzyl]-3-(2,4-difluorophenyl)urea], in experiment [1], inhibition was half-maximal at 120 nM (IC50). In the experiment on cholesterol absorption (setting [3]), the response vs control in vivo at 0.01 % was 70%.

Consider `CCCCCCCN(Cc1ccc(CCCC(=O)O)cc1)C(=O)Nc1c(C)cc(Cl)cc1C` [1-(n-Heptyl)-1-[4-(3-carboxypropyl)benzyl]-3-(4-chloro-2,6-dimethylphenyl)urea], for which the IC50 in experiment [2] turned out to be 7220 nM; in experiment [1], 1020 nM.

Turning to `CCCCCCCN(Cc1ccc(CC2CCCC2)cc1)C(=O)Nc1ccc(F)cc1F` [1-(n-Heptyl)-1-[4-(4-cyclopentylmethyl)benzyl]-3-(2,4-difluorophenyl)urea], the IC50 in experiment [1] was determined as 140 nM. Besides, the response vs control in vivo at 0.01 % in the experiment with cholesterol absorption (setting [3]) was 80%.

In the case of `CCCCCCCN(Cc1ccc(COCCC(C)C)cc1)C(=O)Nc1ccc(F)cc1F` [1-(n-Heptyl)-1-[4-(isopentyloxymethyl)benzyl]-3-(2,4-difluorophenyl)urea], it took 330 nM to reach half-maximal inhibition in experiment [1] (IC50). In addition, the response vs control in vivo at 0.01 % in the experiment with cholesterol absorption (setting [3]) was determined as 60%.

Take `CCCCCCCN(Cc1ccc(CCSC(C)C)cc1)C(=O)Nc1ccc(F)cc1F` [1-(n-Heptyl)-1-[4-(2-isopropylthioethyl)benzyl]-3-(2,4-difluorophenyl)urea]: the IC50 in experiment [1] was determined as 210 nM. In addition, in the experiment with cholesterol absorption (setting [3]), the response vs control in vivo at 0.003 % worked out at 72%.

For `CCCCCCCN(Cc1ccc(CC(=O)O)cc1)C(=O)Nc1ccc(F)cc1F` [1-(n-Heptyl)-1-[4-(carboxymethyl)benzyl]-3-(2,4-difluorophenyl)urea], the IC50 in experiment [1] was 24000 nM.

In experiment [1], `CCCCCCCN(Cc1ccc(CC[S+]([O-])C(C)C)cc1)C(=O)Nc1ccc(F)cc1F` (centres unmarked) [1-(n-Heptyl)-1-[4-(2-isopropylsulfinylethyl)benzyl]-3-(2,4-difluorophenyl)urea] gave an IC50 of 220 nM. For the same compound, the response vs control in vivo at 0.003 % in the experiment with cholesterol absorption (setting [3]) came to 84%.
